Reference: patent US20240092784A1, “CONDENSED HETEROCYCLIC COMPOUND” (NISSAN CHEMICAL CORPORATION, priority 2020, published 2024)
Counter-ions that a name gives are not always drawn. Like-named read-outs stand apart in the source and are kept apart here.

Molecular target: human SPR (Homo sapiens (Human), UniProt P35270)
Assay: Evaluation Example 2: Measurement of human SPR inhibitory activity (seven concentrations, sepiapterin absorbance at 420 nm)
Type: biochemical
Details: Evaluation Example 2, seven concentrations 0.14 nM to 100 nM, 240 minutes at room temperature, read-out: IC50
Experimental: Human SPR was prepared as described below. The full-length human SPR (1-261) cDNA was purchased from Eurofins Genomics as an artificially synthesized plasmid containing a DNA sequence optimized for the E. coli expression system so that the sequence of the expressed protein after transcription and translation matches the sequence described in UniprotKB (P35270).
Linearized insert and vector were prepared by PCR using primers designed for amplification of human SPR cDNA and primers designed to contain the thrombin recognition sequence of pET28a (Novagen) and a polyhistidine tag. Cloning was performed using In-Fusion (registered trademark) HD Cloning Kit (TaKaRa) to thereby construct a human SPR expression plasmid. The resultant human SPR expression plasmid was transformed into BL21 (DE3) competent cells (INVITROGEN).
The cells were inoculated into LB medium (1% triptone, 0.5% yeast extract, 1% sodium chloride) containing […] of kanamycin, and then precultured at 37° C. overnight. The precultured cells were inoculated into TB medium (1.2% triptone, 2.4% yeast extract, 9.4% dipotassium hydrogen phosphate, 2.2% potassium dihydrogen phosphate, 0.8% glycerin) containing […] of kanamycin, and the cultured at 37° C., to thereby induce SPR expression with 0.5 mM IPTG for four hours. After the induction, the cells were collected by centrifugation at 6,000 G for 30 minutes and washed with PBS, and the washing was discarded. The washed cells were suspended in buffer solution A (20 mM MES, pH 6.5, 100 mM sodium chloride, 1 mM DTT, 5 mM imidazole). Subsequently, the cell suspension was subjected to ultrasonic treatment to thereby homogenize the cells. The cell homogenate was clarified by centrifugation at 30,000 G for 60 minutes and then filtered with a […]. The filtrate was allowed to pass through HisTrapFF 5 mL column (GE Healthcare). The resin was washed with buffer A, and then gradient elution was performed with buffer B (20 mM MES, pH 6.5, 100 mM sodium chloride, 1 mM DTT, 500 mM imidazole). Thrombin was added to a fraction containing the SPR protein, and the mixture was dialyzed in buffer A overnight, to thereby cleave the tag. After removal of the thrombin by with Benzamidine Sepharose 4 FF (GE Healthcare), the resultant product was allowed to pass through the HisTrapFF 5 mL column, to thereby remove the tag, followed by concentration with Amicon Ultra 10,000 NMWL (Merck Millipore). The concentrate was purified by gel filtration using HiLoad 16/60 Superdex 75 pg (GE Healthcare) equilibrated with buffer C (20 mM MES, pH 6.5, 100 mM sodium chloride, 1 mM DTT). The fraction containing SPR protein was concentrated and then cryopreserved at −80° C.
Human SPR inhibitory activity was measured by using a 384-well low adsorption clear plate (Greiner) with buffer D containing 100 mM Tris-HCl (pH 7.5) (Thermo Fisher Scientific) and 0.01% bovine serum albumin (Sigma). A compound was diluted with DMSO to achieve seven different final concentrations; i.e., 0.14 nM, 0.41 nM, 1.23 nM, 3.7 nM, 11.1 nM, 33 nM, and 100 nM. A 1.5 μL aliquot of the compound solution prepared with DMSO was diluted with 250 μL of buffer D, and the thus-diluted solution was dispensed into the 384-well plate at 20 μL/well. Thereafter, human SPR was diluted with buffer D to 150 ng/mL and then dispensed into the 384-well plate at 20 μL/well. Subsequently, 40 μL of ultrapure water containing 120 μM sepiapterin (produced by the method described in L-Sepiapterin, Heterocycles, 2008, 76, 1329-1335 and WO 2013/168693) and 160 μM NADPH (Nacalai) was added to each well, and then reaction was initiated. The reaction mixture was incubated at room temperature for 240 minutes. Thereafter, in order to determine the amount of sepiapterin, the absorbance at 420 nm was measured by applying the 384-well plate to EnSpire multimode plate reader (Perkin Elmer). The percent inhibition (%) of human SPR by the test compound was calculated by the following formula.

Chain of human SPR (P35270 whole entry): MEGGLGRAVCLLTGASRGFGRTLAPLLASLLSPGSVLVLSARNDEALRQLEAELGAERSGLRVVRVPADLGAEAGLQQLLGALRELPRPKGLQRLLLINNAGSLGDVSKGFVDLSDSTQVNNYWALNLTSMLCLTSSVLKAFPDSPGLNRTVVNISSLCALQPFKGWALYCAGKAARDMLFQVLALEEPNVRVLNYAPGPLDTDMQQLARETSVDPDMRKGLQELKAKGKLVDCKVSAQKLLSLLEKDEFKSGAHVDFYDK

Row | SMILES | IC50 | IC50 (hydrochloride)
1 | CC(C)Cn1c(=O)c(C(=O)NC2CC2)c(O)n2ncc(/C=C/C(=O)N3CCOCC3CC(F)(F)F)c12 (single isomer, unassigned; isomer b) [compound 551, (E)-N-Cyclopropyl-7-hydroxy-4-isobutyl-5-oxo-3-(3-oxo-3-(3-(2,2,2-trifluoroethyl)morpholino)prop-1-en-1-yl)-4,5-dihydropyrazolo[1,5-a]pyrimidine-6-carboxamide (Isomer B)] | 0.84 nM | 
2 | CC(C)(C)Cn1c(=O)c(C(=O)NC2CC2)c(O)n2nc(N)cc12 [Synthesis Example 4, 2-Amino-N-cyclopropyl-7-hydroxy-4-neopentyl-5-oxo-4,5-dihydropyrazolo[1,5-a]pyrimidine-6-carboxamide hydrochloride] |  | 0.9 nM
3 | CC(C)Cn1c(=O)c(C(=O)NC2CC2)c(O)n2ncc(C(=O)NCc3ccccn3)c12 [Synthesis Example 215, N6-Cyclopropyl-7-hydroxy-4-isobutyl-5-oxo-N3-(pyridin-2-ylmethyl)-4,5-dihydropyrazolo[1,5-a]pyrimidine-3,6-dicarboxamide] | 1.04 nM | 
4 | CC(C)Cn1c(=O)c(C(=O)NC2CC2)c(O)n2ncc(C(=O)NCc3cccnc3)c12 [Synthesis Example 216, N6-Cyclopropyl-7-hydroxy-4-isobutyl-5-oxo-N3-(pyridin-3-ylmethyl)-4,5-dihydropyrazolo[1,5-a]pyrimidine-3,6-dicarboxamide] | 0.78 nM | 
5 | CC(C)Cn1c(=O)c(C(=O)NC2CC2)c(O)n2ncc(C(=O)NCc3ccncc3)c12 [Synthesis Example 217, N6-Cyclopropyl-7-hydroxy-4-isobutyl-5-oxo-N3-(pyridin-4-ylmethyl)-4,5-dihydropyrazolo[1,5-a]pyrimidine-3,6-dicarboxamide] | 0.69 nM | 
6 | CC(C)Cn1c(=O)c(C(=O)NC2CC2)c(O)n2ncc(C(=O)N[C@@H](C)c3ccccn3)c12 [Synthesis Example 218, (S)-N6-Cyclopropyl-7-hydroxy-4-isobutyl-5-oxo-N3-(1-(pyridin-2-yl)ethyl)-4,5-dihydropyrazolo[1,5-a]pyrimidine-3,6-dicarboxamide] | 0.89 nM | 
7 | CC(C)Cn1c(=O)c(C(=O)NC2CC2)c(O)n2ncc(C(=O)N[C@H](C)c3ccccn3)c12 [Synthesis Example 219, (R)-N6-Cyclopropyl-7-hydroxy-4-isobutyl-5-oxo-N3-(1-(pyridin-2-yl)ethyl)-4,5-dihydropyrazolo[1,5-a]pyrimidine-3,6-dicarboxamide] | 0.98 nM | 
8 | CC(C)Cn1c(=O)c(C(=O)NC2CC2)c(O)n2ncc(C(=O)NCc3cnccn3)c12 [Synthesis Example 220, N6-Cyclopropyl-7-hydroxy-4-isobutyl-5-oxo-N3-(pyrazin-2-ylmethyl)-4,5-dihydropyrazolo[1,5-a]pyrimidine-3,6-dicarboxamide] | 0.79 nM | 
9 | CC(C)Cn1c(=O)c(C(=O)NC2CC2)c(O)n2ncc(C(=O)NCC3CCOCC3)c12 [Synthesis Example 221, N6-Cyclopropyl-7-hydroxy-4-isobutyl-5-oxo-N3-((tetrahydro-2H-pyran-4-yl)methyl)-4,5-dihydropyrazolo[1,5-a]pyrimidine-3,6-dicarboxamide] | 0.64 nM | 
10 | CC(C)Cn1c(=O)c(C(=O)NC2CC2)c(O)n2ncc(C(=O)NCC3CC(F)(F)C3)c12 [Synthesis Example 222, N6-Cyclopropyl-N3-((3,3-difluorocyclobutyl)methyl)-7-hydroxy-4-isobutyl-5-oxo-4,5-dihydropyrazolo[1,5-a]pyrimidine-3,6-dicarboxamide] | 0.79 nM | 
11 | Cc1nn(C)c(C)c1CNC(=O)c1cnn2c(O)c(C(=O)NC3CC3)c(=O)n(CC(C)C)c12 [Synthesis Example 223, N6-Cyclopropyl-7-hydroxy-4-isobutyl-5-oxo-N3-((1,3,5-trimethyl-1H-pyrazol-4-yl)methyl)-4,5-dihydropyrazolo[1,5-a]pyrimidine-3,6-dicarboxamide] | 1.12 nM | 
12 | Cc1cnc(CNC(=O)c2cnn3c(O)c(C(=O)NC4CC4)c(=O)n(CC(C)C)c23)cn1 [Synthesis Example 224, N6-Cyclopropyl-7-hydroxy-4-isobutyl-N3-((5-methylpyrazin-2-yl)methyl)-5-oxo-4,5-dihydropyrazolo[1,5-a]pyrimidine-3,6-dicarboxamide] | 0.78 nM | 
13 | CC(C)Cn1c(=O)c(C(=O)NC2CC2)c(O)n2ncc(C(=O)Nc3ccccn3)c12 [Synthesis Example 225, N6-Cyclopropyl-7-hydroxy-4-isobutyl-5-oxo-N3-(pyridin-2-yl)-4,5-dihydropyrazolo[1,5-a]pyrimidine-3,6-dicarboxamide] | 1.84 nM | 
14 | CC(C)Cn1c(=O)c(C(=O)NC2CC2)c(O)n2ncc(C(=O)NCc3ccc(C(F)(F)F)nc3)c12 [Synthesis Example 226, N6-Cyclopropyl-7-hydroxy-4-isobutyl-5-oxo-N3-((6-(trifluoromethyl)pyridin-3-yl)methyl)-4,5-dihydropyrazolo[1,5-a]pyrimidine-3,6-dicarboxamide] | 1.07 nM | 
15 | CC(C)Cn1c(=O)c(C(=O)NC2CC2)c(O)n2ncc(C(=O)N3CCOCC3)c12 [Synthesis Example 227, N-Cyclopropyl-7-hydroxy-4-isobutyl-3-(morpholine-4-carbonyl)-5-oxo-4,5-dihydropyrazolo[1,5-a]pyrimidine-6-carboxamide] | 0.65 nM | 
16 | Cc1ccc(CNC(=O)c2cnn3c(O)c(C(=O)NC4CC4)c(=O)n(CC(C)C)c23)nc1 [Synthesis Example 228, N6-Cyclopropyl-7-hydroxy-4-isobutyl-N3-((5-methylpyridin-2-yl)methyl)-5-oxo-4,5-dihydropyrazolo[1,5-a]pyrimidine-3,6-dicarboxamide] | 1.02 nM | 
17 | Cc1cc(CNC(=O)c2cnn3c(O)c(C(=O)NC4CC4)c(=O)n(CC(C)C)c23)n(C)n1 [Synthesis Example 229, N6-Cyclopropyl-N3-((1,3-dimethyl-1H-pyrazol-5-yl)methyl)-7-hydroxy-4-isobutyl-5-oxo-4,5-dihydropyrazolo[1,5-a]pyrimidine-3,6-dicarboxamide] | 0.85 nM | 
18 | CC(C)Cn1c(=O)c(C(=O)NC2CC2)c(O)n2ncc(C(=O)N(C)Cc3cccnc3)c12 [Synthesis Example 230, N6-Cyclopropyl-7-hydroxy-4-isobutyl-N3-methyl-5-oxo-N3-(pyridin-3-ylmethyl) 4,5-dihydropyrazolo[1,5-a]pyrimidine-3,6-dicarboxamide] | 0.93 nM | 
19 | CC(C)Cn1c(=O)c(C(=O)NC2CC2)c(O)n2ncc(C(=O)NCc3ncccn3)c12 [Synthesis Example 231, N6-Cyclopropyl-7-hydroxy-4-isobutyl-5-oxo-N3-(pyrimidin-2-ylmethyl)-4,5-dihydropyrazolo[1,5-a]pyrimidine-3,6-dicarboxamide] | 0.65 nM | 
20 | CC(C)Cn1c(=O)c(C(=O)NC2CC2)c(O)n2ncc(C(=O)NCc3ccc(C#N)cc3)c12 [Synthesis Example 232, N3-(4-Cyanobenzyl)-N6-cyclopropyl-7-hydroxy-4-isobutyl-5-oxo-4,5-dihydropyrazolo[1,5-a]pyrimidine-3,6-dicarboxamide] | 1.25 nM | 
21 | CC(C)Cn1c(=O)c(C(=O)NC2CC2)c(O)n2ncc(C(=O)NCc3ccccc3F)c12 [Synthesis Example 233, N6-Cyclopropyl-N3-(2-fluorobenzyl)-7-hydroxy-4-isobutyl-5-oxo-4,5-dihydropyrazolo[1,5-a]pyrimidine-3,6-dicarboxamide] | 1.03 nM | 
